In patent publication US8952024B2, “Herbicidal pyrimidone derivatives” (E I du Pont de Nemours and Company, priority 2009, dated 2015):

How the values were obtained:
Type in all cases: in vivo
[1] = tested on: Italian ryegrass (Lolium multiflorum); assay: Test B pre-/postemergence plant response; conditions: for Ryegrass, Italian plant response rating (0 to 100 scale): 62 g ai/ha, 0 is no effect, 13 to 15 days
Outline: (§1)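 Visually scored on a 0 to 100 scale after 13 to 15 days in greenhouse versus controls. Treatments were preemergence on seeded loam/sand soil and postemergence on 1- to 4-leaf plants.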

[2] = tested on: giant foxtail (Setaria faberii); assay: Test B pre-/postemergence plant response; conditions: for Foxtail, Giant plant response rating (0 to 100 scale): 62 g ai/ha, 0 is no effect, 13 to 15 days
Outline: as §1

[3] = tested on: ragweed (common ragweed, Ambrosia elatior); assay: Test B pre-/postemergence plant response; conditions: for Ragweed plant response rating (0 to 100 scale): 62 g ai/ha, 0 is no effect, 13 to 15 days
Outline: as §1

[4] = tested on: canarygrass (Phalaris minor); assay: Test B postemergence plant response; conditions: for Canarygrass plant response rating (0 to 100 scale): 62 g ai/ha, 0 is no effect, 13 to 15 days
Outline: (§2)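 Plants at the 1- to 4-leaf stage (2 to 18 cm tall), grown in pots of peat moss/vermiculite medium with wetting agent and starter nutrients, received postemergence applications of test chemicals. After 13 to 15 days in a greenhouse, injury was rated visually against untreated controls on a 0 (no effect) to 100 (complete control) scale.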

[5] = tested on: chickweed (Stellaria media); assay: Test B postemergence plant response; conditions: for Chickweed plant response rating (0 to 100 scale): 62 g ai/ha, 0 is no effect, 13 to 15 days
Outline: as §2

[6] = tested on: windgrass (Apera spica-venti); assay: Test B postemergence plant response; conditions: for Windgrass plant response rating (0 to 100 scale): 62 g ai/ha, 0 is no effect, 13 to 15 days
Outline: as §2

[7] = tested on: winter barley (Hordeum vulgare); assay: Test B postemergence plant response; conditions: for Barley plant response rating (0 to 100 scale): 62 g ai/ha, 0 is no effect, 13 to 15 days
Outline: as §2

[8] = tested on: barnyardgrass (Echinochloa crus-galli); assay: Test B flooded paddy test; conditions: for Plant response rating, Flood, Barnyardgrass: 250 g ai/ha, flooded paddy test, visual rating on 0 to 100 scale (0 no effect, 100 complete control) after 13 to 15 days; for Plant response rating, Barnyardgrass: Flood (flooded paddy test), 13 to 15 days; for Barnyardgrass plant response rating: Flood, 31 g ai/ha, scale 0 to 100 (0 no effect, 100 complete control)
Outline: (§3)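 Visual scores run from 0 (no effect) to 100 (complete control), assigned by comparison with controls 13 to 15 days after treatment. Test compounds went straight into water standing 3 cm above the soil, around plants at the 2-leaf stage kept in a greenhouse.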

[9] = tested on: ducksalad (Heteranthera limosa); assay: Test B flooded paddy test; conditions: for Plant response rating, Flood, Ducksalad: 250 g ai/ha, flooded paddy test, visual rating on 0 to 100 scale (0 no effect, 100 complete control) after 13 to 15 days; for Plant response rating, Ducksalad: Flood (flooded paddy test), 13 to 15 days; for Ducksalad plant response rating: Flood, 31 g ai/ha, scale 0 to 100 (0 no effect, 100 complete control)
Outline: as §3

rice (Oryza sativa) = assay: Test B flooded paddy test; conditions: for Plant response rating, Flood, Rice: 250 g ai/ha, flooded paddy test, visual rating on 0 to 100 scale (0 no effect, 100 complete control) after 13 to 15 days; for Plant response rating, Rice: Flood (flooded paddy test), 13 to 15 days; for Rice plant response rating: Flood, 31 g ai/ha, scale 0 to 100 (0 no effect, 100 complete control)
Outline: as §3

[10] = tested on: umbrella sedge (Cyperus difformis); assay: Test B flooded paddy test; conditions: for Plant response rating, Flood, Sedge, Umbrella: 250 g ai/ha, flooded paddy test, visual rating on 0 to 100 scale (0 no effect, 100 complete control) after 13 to 15 days; for Plant response rating, Sedge, Umbrella: Flood (flooded paddy test), 13 to 15 days; for Sedge, Umbrella plant response rating: Flood, 31 g ai/ha, scale 0 to 100 (0 no effect, 100 complete control)
Outline: as §3

[11] = 31 g ai/ha, postemergence, scale 0 to 100, 0 is no effect, 100 is complete control
[12] = postemergence, 100 is complete control
[13] = Postemergence, 250 g ai/ha, scale 0 to 100 (0 no effect, 100 complete control)
[14] = Postemergence, 125 g ai/ha, visual rating after 13 to 15 days, scale 0 (no effect) to 100 (complete control)
[15] = 62 g ai/ha, scale of 0 to 100 where 0 is no effect and 100 is complete control
[16] = 125 g ai/ha, scale 0 to 100, 0 is no effect, 100 is complete control

For CCOCCn1c(-c2ccccc2)ncc(C(=O)C2=C(O)CCCC2=O)c1=O [Compound 96], the “Plant response rating, Ryegrass, Italian” value [1, 11] was 0, the “Ryegrass, Italian plant response rating (0 to 100 scale)” value [1, 12] was 5 and the “Plant response rating, Ryegrass, Italian” value [1, 13] was 10. The “Plant response rating, Foxtail, Giant” value [2, 11] was 65, the “Foxtail, Giant plant response rating (0 to 100 scale)” value [2, 12] was 70 and the “Plant response rating, Foxtail, Giant” value [2, 13] was 85. The “Plant response rating, Ragweed” value [3, 11] was 80, the “Ragweed plant response rating (0 to 100 scale)” value [3, 12] was 80 and the “Plant response rating, Ragweed” value [3, 13] was 95. The “Plant response rating, Canarygrass” value [4, 11] was 0, the “Canarygrass plant response rating (0 to 100 scale)” value [4, 12] was 5 and the “Plant response rating, Canarygrass” value [4, 14] was 30. The “Plant response rating, Canarygrass” value [4, 13] was 45, the “Plant response rating, Chickweed” value [5, 11] was 75 and the “Chickweed plant response rating (0 to 100 scale)” value [5, 12] was 95. For the same compound, the “Plant response rating, Chickweed” value [5, 14] was 98, the “Plant response rating, Chickweed” value [5, 13] was 100 and the “Plant response rating, Windgrass” value [6, 11] was 5. For the same compound, the “Windgrass plant response rating (0 to 100 scale)” value [6, 12] was 10, the “Plant response rating, Windgrass” value [6, 13] was 45 and the “Plant response rating, Barley” value [7, 11] was 0. For the same compound, the “Barley plant response rating (0 to 100 scale)” value [7, 12] was 0, the “Plant response rating, Barley” value [7, 14] was 0 and the “Plant response rating, Barley” value [7, 13] was 5. For the same compound, the “Plant response rating, Flood, Barnyardgrass” value [8] was 85, the “Plant response rating, Barnyardgrass” value [8, 15] was 65 and the “Plant response rating, Barnyardgrass” value [8, 16] was 80. For the same compound, the “Barnyardgrass plant response rating” value [8] was 60, the “Plant response rating, Flood, Ducksalad” value [9] was 75 and the “Plant response rating, Ducksalad” value [9, 15] was 0. The “Plant response rating, Ducksalad” value [9, 16] was 50, the “Ducksalad plant response rating” value [9] was 0 and the “Plant response rating, Flood, Rice” value (rice (Oryza sativa)) was 15. The “Plant response rating, Rice” value (rice (Oryza sativa); [15]) was 15, the “Plant response rating, Rice” value (rice (Oryza sativa); [16]) was 15 and the “Rice plant response rating” value (rice (Oryza sativa)) was 10. The “Plant response rating, Flood, Sedge, Umbrella” value [10] was 90, the “Plant response rating, Sedge, Umbrella” value [10, 15] was 75 and the “Plant response rating, Sedge, Umbrella” value [10, 16] was 85. For the same compound, the “Sedge, Umbrella plant response rating” value [10] was 50.
With CCCc1ncc(C(=O)C2=C(O)CCCC2=O)c(=O)n1-c1cccc(C)c1 [Compound 79] the “Plant response rating, Ryegrass, Italian” value [1, 11] was 20, the “Ryegrass, Italian plant response rating (0 to 100 scale)” value [1, 12] was 20 and the “Plant response rating, Ryegrass, Italian” value [1, 14] was 50. For the same compound, the “Plant response rating, Ryegrass, Italian” value [1, 13] was 55, the “Plant response rating, Foxtail, Giant” value [2, 11] was 70 and the “Foxtail, Giant plant response rating (0 to 100 scale)” value [2, 12] was 75. For the same compound, the “Plant response rating, Foxtail, Giant” value [2, 14] was 95, the “Plant response rating, Foxtail, Giant” value [2, 13] was 95 and the “Plant response rating, Ragweed” value [3, 11] was 80. For the same compound, the “Ragweed plant response rating (0 to 100 scale)” value [3, 12] was 85, the “Plant response rating, Ragweed” value [3, 14] was 95 and the “Plant response rating, Ragweed” value [3, 13] was 98. For the same compound, the “Plant response rating, Canarygrass” value [4, 11] was 15, the “Canarygrass plant response rating (0 to 100 scale)” value [4, 12] was 30 and the “Plant response rating, Canarygrass” value [4, 14] was 35. For the same compound, the “Plant response rating, Canarygrass” value [4, 13] was 50, the “Plant response rating, Chickweed” value [5, 11] was 80 and the “Chickweed plant response rating (0 to 100 scale)” value [5, 12] was 95. For the same compound, the “Plant response rating, Chickweed” value [5, 14] was 95, the “Plant response rating, Chickweed” value [5, 13] was 98 and the “Plant response rating, Windgrass” value [6, 11] was 50. For the same compound, the “Windgrass plant response rating (0 to 100 scale)” value [6, 12] was 65, the “Plant response rating, Windgrass” value [6, 14] was 65 and the “Plant response rating, Windgrass” value [6, 13] was 90. For the same compound, the “Plant response rating, Barley” value [7, 11] was 5, the “Barley plant response rating (0 to 100 scale)” value [7, 12] was 30 and the “Plant response rating, Barley” value [7, 14] was 35. For the same compound, the “Plant response rating, Barley” value [7, 13] was 55, the “Plant response rating, Flood, Barnyardgrass” value [8] was 30 and the “Plant response rating, Barnyardgrass” value [8, 15] was 0. For the same compound, the “Plant response rating, Barnyardgrass” value [8, 16] was 20, the “Barnyardgrass plant response rating” value [8] was 0 and the “Plant response rating, Flood, Ducksalad” value [9] was 40. For the same compound, the “Plant response rating, Ducksalad” value [9, 15] was 0, the “Plant response rating, Ducksalad” value [9, 16] was 15 and the “Ducksalad plant response rating” value [9] was 0. For the same compound, the “Plant response rating, Flood, Rice” value (rice (Oryza sativa)) was 20, the “Plant response rating, Rice” value (rice (Oryza sativa); [15]) was 0 and the “Plant response rating, Rice” value (rice (Oryza sativa); [16]) was 15. The “Rice plant response rating” value (rice (Oryza sativa)) was 0, the “Plant response rating, Flood, Sedge, Umbrella” value [10] was 30 and the “Plant response rating, Sedge, Umbrella” value [10, 15] was 0. The “Plant response rating, Sedge, Umbrella” value [10, 16] was 0 and the “Sedge, Umbrella plant response rating” value [10] was 0.
